Test results published in the supplement of paper PMC10307832.

Legend:
Experiment in all cases: relative viability (nuclei count vs DMSO), 5 days (fraction); higher = more cells survive
[1] = compound: C1=CC2=C(C=C(C(=C2N=C1)O)N=NC3=CC4=C(C=C3)C=C(C=C4)S(=O)(=O)O)S(=O)(=O)O + CC(=O)c1c(C)c2cnc(Nc3ccc(N4CCNCC4)cn3)nc2n(C2CCCC2)c1=O [Palbociclib] (partner 0.5 µM)
How it was run: (§1)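 Lung cancer cell lines in 1536-well plates got either a single drug or a fixed anchor-drug dose together with five library-drug doses (not always all listed) in √10 steps, by pin tool, on the day after seeding. Nuclei were counted after 5 days, and relative viability is the treated-to-vehicle ratio of nuclei counts. Values are medians of duplicate plates.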

AT-7519 + Decitabine = compound: O=C(NC1CCNCC1)c1n[nH]cc1NC(=O)c1c(Cl)cccc1Cl [AT-7519] + Nc1ncn([C@H]2C[C@H](O)[C@@H](CO)O2)c(=O)n1 [Decitabine] (partner 2 µM)
How it was run: as §1

[2] = compound: C1=CC2=C(C=C(C(=C2N=C1)O)N=NC3=CC4=C(C=C3)C=C(C=C4)S(=O)(=O)O)S(=O)(=O)O + Nc1nc2[nH]cc(CCc3ccc(C(=O)N[C@@H](CCC(=O)O)C(=O)O)cc3)c2c(=O)[nH]1 [Pemetrexed] (partner 0.2 µM)
How it was run: as §1

AT-7519 + Alpelisib = compound: O=C(NC1CCNCC1)c1n[nH]cc1NC(=O)c1c(Cl)cccc1Cl [AT-7519] + Cc1nc(NC(=O)N2CCC[C@H]2C(N)=O)sc1-c1ccnc(C(C)(C)C(F)(F)F)c1 [Alpelisib] (partner 2 µM)
How it was run: as §1

Row | Cell Line | relative viability ([1]; first compound 0.08 µM) | relative viability ([1]; first compound 0.253 µM) | relative viability ([1]; first compound 0.8 µM) | relative viability ([1]; first compound 2.53 µM) | relative viability ([1]; first compound 8 µM) | relative viability (AT-7519 + Decitabine; first compound 0.01 µM) | relative viability (AT-7519 + Decitabine; first compound 0.03162 µM) | relative viability (AT-7519 + Decitabine; first compound 0.3162 µM) | relative viability (AT-7519 + Decitabine; first compound 1 µM) | relative viability ([2]; first compound 0.08 µM) | relative viability ([2]; first compound 0.253 µM) | relative viability ([2]; first compound 0.8 µM) | relative viability ([2]; first compound 2.53 µM) | relative viability ([2]; first compound 8 µM) | relative viability (AT-7519 + Alpelisib; first compound 0.01 µM) | relative viability (AT-7519 + Alpelisib; first compound 0.03162 µM) | relative viability (AT-7519 + Alpelisib; first compound 0.3162 µM) | relative viability (AT-7519 + Alpelisib; first compound 1 µM)
1 | HCC-78 | 0.566 | 0.463 | 0.505 | 0.45 | 0.466 | 0.688 | 0.704 | 0.696 | 0.626 | 0.915 | 0.922 | 0.902 | 0.887 | 0.908 | 0.142 | 0.286 | 0.305 | 0.283
2 | IA-LM | – | – | – | – | – | – | – | – | – | – | – | – | – | – | 0.904 | 0.617 | 0.779 | 0.488
3 | NCI-H322M | 0.473 | 0.462 | 0.501 | 0.454 | 0.514 | 0.654 | 0.643 | 0.631 | 0.554 | 0.663 | 0.663 | 0.608 | 0.587 | 0.669 | 0.823 | 0.725 | 0.721 | 0.824
4 | NCI-H3122 | 0.215 | 0.185 | 0.176 | 0.2 | 0.216 | 0.508 | 0.484 | 0.511 | 0.193 | 0.194 | 0.201 | 0.202 | 0.189 | 0.182 | 0.827 | 0.699 | 0.813 | 0.263
5 | COR-L23 | 0.326 | 0.346 | 0.274 | 0.299 | 0.39 | 0.455 | 0.465 | 0.388 | 0.197 | 0.206 | 0.202 | 0.2 | 0.199 | 0.192 | 0.987 | 0.746 | 0.348 | 0.119
6 | NCI-H2087 | 0.238 | 0.213 | 0.199 | 0.215 | 0.191 | 0.24 | 0.257 | 0.262 | 0.0751 | 0.643 | 0.599 | 0.567 | 0.602 | 0.7 | 1.14 | 1.21 | 1.01 | 0.161
7 | LC-2-ad | 0.573 | 0.493 | 0.499 | 0.493 | 0.528 | 0.789 | 0.765 | 0.838 | 0.737 | 0.28 | 0.278 | 0.265 | 0.261 | 0.274 | 0.914 | 0.843 | 0.904 | 0.472
8 | NCI-H1915 | 0.415 | 0.523 | 0.488 | 0.545 | 0.494 | 0.25 | 0.248 | 0.288 | 0.235 | 0.523 | 0.464 | 0.473 | 0.461 | 0.446 | 1.06 | 1 | 1.04 | 0.732
9 | NCI-H1793 | 0.352 | 0.327 | 0.283 | 0.3 | 0.271 | 0.517 | 0.551 | 0.449 | 0.378 | 1 | 0.844 | 0.799 | 0.841 | 0.888 | 0.574 | 0.632 | 0.907 | 0.774
10 | NCI-H2023 | 0.451 | 0.395 | 0.391 | 0.421 | 0.309 | 0.201 | 0.234 | 0.209 | 0.125 | 0.205 | 0.223 | 0.265 | 0.256 | 0.14 | 0.648 | 0.711 | 0.498 | 0.3
11 | COR-L 105 | 0.391 | 0.433 | 0.449 | 0.426 | 0.384 | 0.687 | 0.682 | 0.608 | 0.351 | 1.3 | 1.14 | 1.21 | 1.04 | 1.1 | 1.13 | 0.996 | 0.927 | 0.507
12 | ChaGo-K-1 | 0.974 | 0.948 | 0.931 | 0.903 | 0.853 | 0.534 | 0.526 | 0.519 | 0.461 | 0.256 | 0.257 | 0.272 | 0.256 | 0.242 | – | – | – | –
13 | NCI-H2342 | 0.576 | 0.538 | 0.532 | 0.6 | 0.542 | 0.709 | 0.61 | 0.701 | 0.631 | 0.82 | 0.791 | 0.766 | 0.807 | 0.765 | – | – | – | –
14 | NCI-H1299 | – | – | – | – | – | – | – | – | – | – | – | – | – | – | 1.1 | 1.08 | 1.17 | 1.15
15 | NCI-H1650 | 0.369 | 0.302 | 0.301 | 0.328 | 0.308 | 0.401 | 0.388 | 0.431 | 0.204 | 0.433 | 0.346 | 0.368 | 0.389 | 0.4 | – | – | – | –
16 | SW 900 | 0.53 | 0.58 | 0.477 | 0.648 | 0.579 | 0.437 | 0.435 | 0.422 | 0.32 | 0.479 | 0.49 | 0.468 | 0.531 | 0.481 | – | – | – | –
17 | NCI-H596 | – | – | – | – | – | 0.939 | 0.967 | 0.789 | 1.16 | 0.557 | 0.452 | 0.52 | 0.493 | 0.486 | 0.485 | 0.548 | 0.191 | 0.41
18 | NCI-H727 | 0.674 | 0.652 | 0.659 | 0.634 | 0.694 | 0.927 | 0.746 | 0.874 | 0.509 | – | – | – | – | – | 0.649 | 0.486 | 0.546 | 0.226
19 | NCI-H1648 | – | 0.29 | – | – | 0.301 | 0.427 | – | 0.438 | 0.445 | – | 0.695 | – | – | 0.855 | – | – | – | –
20 | NCI-H522 | 0.957 | 0.981 | 0.934 | 0.849 | 0.923 | 0.648 | 0.588 | 0.662 | 0.644 | 0.949 | 1.03 | 1.04 | 0.971 | 1.09 | – | – | – | –
21 | A549 | – | – | – | – | – | 0.233 | 0.22 | 0.28 | 0.251 | – | – | – | – | – | 0.882 | 0.708 | 0.69 | 0.322
22 | NCI-H1563 | – | – | – | – | – | – | – | – | – | 0.776 | 0.744 | 0.726 | 0.79 | 0.376 | 0.868 | 0.942 | 0.942 | 0.781
23 | ABC-1 | 0.756 | 0.647 | 0.659 | 0.91 | 0.761 | 1.22 | 1.08 | 0.859 | 0.926 | – | – | – | – | – | 0.962 | 1.01 | 0.724 | 0.416
